Assay results as given in ChEMBL document CHEMBL5233266, “β-Carboline as a Privileged Scaffold for Multitarget Strategies in Alzheimer's Disease Therapy” (J Med Chem, 2021).
Several values for one entry are separate records, joined by “and”; a condition that tells them apart may be missing. Equal entries are not always repeated.

Legend:
Acetylcholinesterase = Acetylcholinesterase (Homo sapiens, UniProt P22303); assay: Inhibition of AChE (unknown origin) using acetylthiocholine iodide as substrate incubated for 20 mins followed by substrate addition by Ellman's method
Sequence of Acetylcholinesterase (P22303 whole entry): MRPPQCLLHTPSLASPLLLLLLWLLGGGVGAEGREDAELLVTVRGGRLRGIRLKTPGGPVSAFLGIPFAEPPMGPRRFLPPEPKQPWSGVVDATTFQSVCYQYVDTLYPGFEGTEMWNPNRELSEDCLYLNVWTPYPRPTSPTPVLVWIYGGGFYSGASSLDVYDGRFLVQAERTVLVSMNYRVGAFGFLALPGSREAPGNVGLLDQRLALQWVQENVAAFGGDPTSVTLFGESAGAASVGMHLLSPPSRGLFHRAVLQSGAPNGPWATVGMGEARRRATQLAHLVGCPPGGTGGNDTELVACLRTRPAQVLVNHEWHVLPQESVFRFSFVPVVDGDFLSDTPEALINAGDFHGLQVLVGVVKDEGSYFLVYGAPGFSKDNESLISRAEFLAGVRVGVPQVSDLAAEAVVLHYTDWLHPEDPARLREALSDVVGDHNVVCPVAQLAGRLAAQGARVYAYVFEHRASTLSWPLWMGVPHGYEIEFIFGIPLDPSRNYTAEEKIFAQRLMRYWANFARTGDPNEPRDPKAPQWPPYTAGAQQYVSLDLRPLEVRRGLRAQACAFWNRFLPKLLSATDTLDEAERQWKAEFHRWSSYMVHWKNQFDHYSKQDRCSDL

[1] = target: T1, Amine oxidase [flavin-containing] A (Homo sapiens, UniProt P21397); assay: Inhibition of MAO-A (unknown origin)
T1 sequence (P21397 whole entry): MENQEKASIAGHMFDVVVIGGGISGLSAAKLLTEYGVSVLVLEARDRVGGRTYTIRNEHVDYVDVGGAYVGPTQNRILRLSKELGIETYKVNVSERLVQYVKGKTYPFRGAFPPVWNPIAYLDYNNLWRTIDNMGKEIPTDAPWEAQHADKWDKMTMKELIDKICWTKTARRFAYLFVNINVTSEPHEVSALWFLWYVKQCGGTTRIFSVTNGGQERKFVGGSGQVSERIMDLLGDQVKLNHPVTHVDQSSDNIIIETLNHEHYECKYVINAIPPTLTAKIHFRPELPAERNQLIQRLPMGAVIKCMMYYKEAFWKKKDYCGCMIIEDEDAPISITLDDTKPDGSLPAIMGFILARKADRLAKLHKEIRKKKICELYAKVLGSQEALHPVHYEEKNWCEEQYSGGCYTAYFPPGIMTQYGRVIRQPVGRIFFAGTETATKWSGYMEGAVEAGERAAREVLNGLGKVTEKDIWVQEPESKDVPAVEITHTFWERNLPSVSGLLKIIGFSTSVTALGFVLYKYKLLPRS

[2] = target: GABA-A receptor; anion channel; assay: Inhibition of GABAA receptor (unknown origin); assay type: protein-complex assay, Homo sapiens
[3] = target: 5-hydroxytryptamine receptor 2B (Homo sapiens, UniProt P41595); assay: Binding affinity to 5-HT2B (unknown origin) assessed as equilibrium binding constant
Sequence of 5-hydroxytryptamine receptor 2B (Homo sapiens, UniProt P41595) (P41595 whole entry): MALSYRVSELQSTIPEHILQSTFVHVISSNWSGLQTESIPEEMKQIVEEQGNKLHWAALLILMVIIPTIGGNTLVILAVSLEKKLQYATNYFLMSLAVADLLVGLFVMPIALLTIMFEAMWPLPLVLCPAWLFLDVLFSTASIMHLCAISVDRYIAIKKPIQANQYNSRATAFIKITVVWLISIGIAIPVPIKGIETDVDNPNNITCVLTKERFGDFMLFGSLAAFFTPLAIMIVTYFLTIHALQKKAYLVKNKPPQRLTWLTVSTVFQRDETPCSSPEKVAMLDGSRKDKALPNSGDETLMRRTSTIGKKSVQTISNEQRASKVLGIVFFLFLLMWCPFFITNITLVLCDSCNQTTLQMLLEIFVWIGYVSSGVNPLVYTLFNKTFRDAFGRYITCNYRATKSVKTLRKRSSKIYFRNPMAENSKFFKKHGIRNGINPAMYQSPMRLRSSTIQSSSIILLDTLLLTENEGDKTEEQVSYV

[4] = target: 5-hydroxytryptamine receptor 2B (Rattus norvegicus, UniProt P30994); assay: Displacement of [3H]-ketanserin from rat 5-HT2B expressed in mouse NIH/3T3 cells assessed as inhibition constant by Cheng-Prusoff equation analysis; assay type: cell-based
Sequence of 5-hydroxytryptamine receptor 2B (Rattus norvegicus, UniProt P30994) (P30994 whole entry): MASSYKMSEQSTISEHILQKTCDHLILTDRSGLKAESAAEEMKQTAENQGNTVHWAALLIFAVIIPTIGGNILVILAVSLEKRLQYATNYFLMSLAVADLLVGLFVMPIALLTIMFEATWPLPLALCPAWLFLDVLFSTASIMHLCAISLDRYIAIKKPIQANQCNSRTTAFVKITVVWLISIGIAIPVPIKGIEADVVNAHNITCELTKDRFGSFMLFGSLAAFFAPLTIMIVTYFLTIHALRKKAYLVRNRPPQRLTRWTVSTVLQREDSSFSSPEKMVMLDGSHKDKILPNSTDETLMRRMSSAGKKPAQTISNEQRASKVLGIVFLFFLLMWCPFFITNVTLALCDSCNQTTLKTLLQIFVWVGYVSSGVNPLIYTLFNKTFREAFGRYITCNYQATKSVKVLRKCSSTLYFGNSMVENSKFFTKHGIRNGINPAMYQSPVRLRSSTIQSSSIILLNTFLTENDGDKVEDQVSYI

SMILES | Kb [3] | Ki [4] [nM] | also measured
C=C[C@H]1[C@@H](/C(=C/O)C(=O)OC)C[C@H]2c3[nH]c4ccccc4c3CCN2[C@H]1O[C@@H]1O[C@H](CO)[C@@H](O)[C@H](O)[C@H]1O |  |  | IC50 (Acetylcholinesterase): 1900 nM
Cc1nccc2c1[nH]c1cc(OCC(C)C)ccc12 |  |  | IC50 [1]: 5 nM
CCCn1c2cc(OCc3cn(Cc4ccccc4Cl)nn3)ccc2c2ccnc(C)c21 |  |  | IC50 [1]: 260 nM
COCc1c(C(=O)OC(C)C)ncc2[nH]c3ccc4nc5c(nc4c3c12)CCCC5 |  |  | IC50 [2]: 0.8 nM
Cc1nccc2c1[nH]c1cc(CO)ccc12 |  |  | IC50 [1]: 40 nM
COc1ccc(CC2NCCc3c2[nH]c2c(F)cc(F)cc32)cc1OC (stereo unspecified) | < 0.3 nM | 0.2 | 
COCc1c(C(=O)OC(C)C)ncc2[nH]c3ccc4nccnc4c3c12 |  |  | IC50 [2]: 0.8 nM
C=CCOc1ccc2c(c1)[nH]c1c(C)nccc12 |  |  | IC50 [1]: 5 nM
COc1ccc(CC2NCCc3c2[nH]c2cccc(I)c32)cc1OC (stereo unspecified) | < 0.3 nM | 0.1 | 
COC(=O)C1=CO[C@@H](C)[C@H]2C[n+]3ccc4c([nH]c5ccccc54)c3C[C@H]12 |  |  | IC50 (Acetylcholinesterase): 780 nM
COCc1c(C(=O)OC(C)C)ncc2[nH]c3ccc4oc(C(C)C)cc4c3c12 |  |  | IC50 [2]: 0.8 nM
c1ccc2c(CC3NCCc4c3[nH]c3ccccc43)cccc2c1 (stereo unspecified) | 0.4 nM | 0.4 | 
COc1ccc(CC2NCCc3c2[nH]c2cccc(SC)c32)cc1OC (stereo unspecified) | < 0.3 nM | 0.1 | 
C=C[C@H]1C[N+]2=C(C[C@@H]1/C(=C\OC)C(=O)OC)c1[nH]c3cccc(OC)c3c1CC2 |  |  | IC50 (Acetylcholinesterase): 4100 nM
COc1ccc2c3ccnc(C)c3n(C)c2c1 |  |  | IC50 [1]: 11 nM
O=[N+]([O-])c1ccc2[nH]c3cnc4c5ccccc5[nH]c4c3c2c1 |  |  | IC50 [2]: 4 nM
COCc1c(-c2cc(C)on2)ncc2[nH]c3ccc4oc(C(C)C)nc4c3c12 |  |  | IC50 [2]: 0.9 nM
Cc1nccc2c1[nH]c1cc(OCCc3ccccc3)ccc12 |  |  | IC50 [1]: 5 nM
Brc1ccc2[nH]c3cnc4c5ccccc5[nH]c4c3c2c1 |  |  | IC50 [2]: 4 nM
CCc1cccc2[nH]c3c(c12)CCNC3Cc1ccc(OC)c(OC)c1 (stereo unspecified) | < 0.3 nM | 0.1 | 
Cc1nccc2c1[nH]c1cc(OCCCC(F)(F)F)ccc12 |  |  | IC50 [1]: 5 nM
COCc1ccc2c(c1)[nH]c1c(C)nccc12 |  |  | IC50 [1]: 30 nM
c1ccc(COc2ccc3c(c2)[nH]c2c3ncc3[nH]c4ccccc4c32)cc1 |  |  | IC50 [2]: > 4000 nM

Second part, led by results:

Kb [3] | Ki [4] [nM] | SMILES | also measured
< 0.3 nM and 0.08 nM | 0.2 | COc1ccc(CC2NCCc3c2[nH]c2c(C)cc(C)cc32)cc1OC (stereo unspecified) | 
< 0.3 nM | 0.2 | COc1ccc(CC2NCCc3c2[nH]c2ccc(C)cc32)c(Cl)c1OC (stereo unspecified) | 
0.08 nM | 0.1 | COc1ccc(CC2NCCc3c2[nH]c2cccc(C)c32)cc1OC (stereo unspecified) | 
< 0.3 nM | 0.2 | COc1ccc(CC2NCCc3c2[nH]c2ccc(C)cc32)c(Br)c1OC (stereo unspecified) | 
